# Patent publication US20180148418A1, “AMIDO-SUBSTITUTED CYCLOHEXANE DERIVATIVES” (Bayer Pharma Aktiengesellschaft, priority 2015, published 2018)
# Target: T1, TNKS1 (Homo sapiens, UniProt O95271)
# T1 construct: purchased BPS Bioscience, San Diego, USA 80579 (TNKS1 Histone Ribosylation Assay Kit)
# T1 sequence (O95271 1-1327): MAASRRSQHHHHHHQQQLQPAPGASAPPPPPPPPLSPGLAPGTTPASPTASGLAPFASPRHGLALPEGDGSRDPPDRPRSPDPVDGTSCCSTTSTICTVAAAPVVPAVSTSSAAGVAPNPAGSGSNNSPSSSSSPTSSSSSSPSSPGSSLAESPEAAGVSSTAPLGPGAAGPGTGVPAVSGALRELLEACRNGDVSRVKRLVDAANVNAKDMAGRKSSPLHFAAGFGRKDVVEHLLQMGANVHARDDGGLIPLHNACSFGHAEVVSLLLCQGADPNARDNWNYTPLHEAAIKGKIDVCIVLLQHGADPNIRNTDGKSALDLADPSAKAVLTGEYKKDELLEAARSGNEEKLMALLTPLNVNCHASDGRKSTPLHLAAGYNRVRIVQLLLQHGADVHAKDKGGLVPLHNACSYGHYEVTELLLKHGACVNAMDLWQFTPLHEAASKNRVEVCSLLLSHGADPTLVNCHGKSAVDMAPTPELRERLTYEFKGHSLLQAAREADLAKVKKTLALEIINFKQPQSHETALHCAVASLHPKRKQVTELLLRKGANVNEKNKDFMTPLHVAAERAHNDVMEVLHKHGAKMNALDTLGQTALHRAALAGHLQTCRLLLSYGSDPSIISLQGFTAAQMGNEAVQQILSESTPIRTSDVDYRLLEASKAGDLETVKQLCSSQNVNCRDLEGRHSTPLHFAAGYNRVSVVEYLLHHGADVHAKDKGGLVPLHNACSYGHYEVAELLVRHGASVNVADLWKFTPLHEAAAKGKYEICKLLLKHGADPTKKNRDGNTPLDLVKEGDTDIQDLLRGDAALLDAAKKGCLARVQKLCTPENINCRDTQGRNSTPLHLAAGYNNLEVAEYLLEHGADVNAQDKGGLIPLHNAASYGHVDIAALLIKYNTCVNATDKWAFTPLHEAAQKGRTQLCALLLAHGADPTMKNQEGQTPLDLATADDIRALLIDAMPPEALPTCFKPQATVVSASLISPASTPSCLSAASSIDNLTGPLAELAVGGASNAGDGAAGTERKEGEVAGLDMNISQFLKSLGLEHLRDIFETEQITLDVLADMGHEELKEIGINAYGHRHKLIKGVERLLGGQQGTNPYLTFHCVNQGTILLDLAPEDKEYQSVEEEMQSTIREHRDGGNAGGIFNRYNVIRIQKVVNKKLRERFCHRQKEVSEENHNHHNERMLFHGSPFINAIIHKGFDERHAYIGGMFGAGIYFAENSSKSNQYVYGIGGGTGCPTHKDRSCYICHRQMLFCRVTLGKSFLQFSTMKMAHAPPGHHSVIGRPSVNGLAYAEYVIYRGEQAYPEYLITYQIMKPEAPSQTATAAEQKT
# Assay: TNKS1 Assay B (auto-parsylation, [3H]-NAD+ SPA)
# Assay type: biochemical
# Conditions: 6 nM TNKS1, auto-parsylation, over night at room temperature
# Protocol: The potency of selected compounds according to the invention was assessed applying a modified in vitro inhibition assay. Here, the TNKS1 catalyzed NAD^+-dependent ribosylation of the enzyme itself (auto-parsylation) was detected using [^3H]-NAD^+ as substrate and applying the scintillation proximity assay (SPA) method to detect tritium-labeled, parsylated TNKS1. The intensity of the readout signal is proportional to the incorporated [^3H]-NAD^+. Inhibition of TNKS1 leads to a decreased incorporation of [^3H]-NAD^+ and consequently to a lower readout signal intensity. The concentration of a test compound which inhibits the enzyme activity by 50% (corresponds to half of the normed readout signal intensity) is reported as IC50.
# Protocol Auto-Parsylation Assay
# The assay was conducted in a 96 well MTP format with the identical TNKS1 enzyme sample and NAD^+ sample as in the histone ribosylation assay with the following modifications: TNKS1 enzyme sample was diluted with a modified assay buffer (50 mM MES pH 7.0, 1 mM DTT, 0.01% Triton X-100) to a final concentration of 6 nM TNKS1 and 10×NAD^+ solution was diluted with the modified assay buffer (s. above) to a final 0.445×NAD^+ solution doped with 100 Bq/μl [^3H]-NAD^+[Catalog #NET443H050UC, Perkin Elmer, Waltham, Mass., USA]. Substrate solution (10 μl) was incubated with different test compound concentrations (2.5 ul in 10% DMSO in modified assay buffer) or control (2.5 ul 10% DMSO in modified assay buffer only) and enzyme (10 μl) over night at room temperature. Incorporated tritium was measured after addition of 50 μl SPA beads (1 mg/ml) [Catalog #RPNQ0095 20 mg/ml, Perkin Elmer, Waltham, Mass., USA; diluted 1:10 with Dulbecco's phosphate buffered saline, PBS Catalog #D8537, Sigma-Aldrich, Steinheim, Germany] and detection of the photon emission with a beta count plate reader [Wallac MicroBeta®, Perkin Elmer, Waltham, Mass., USA].
row,IC50 [nM],SMILES
1,320,"Cc1cc(C)n2ncc(C(=O)NC34CCC(C(=O)Nc5c(F)cc(F)cc5Cl)(CC3)CC4)c2n1 [Example 127, N-{4-[(2-chloro-4,6-difluorophenyl)carbamoyl]bicyclo[2.2.2]oct-1-yl}-5,7-dimethylpyrazolo[1,5-a]pyrimidine-3-carboxamide]"
2,190,"COC(C)(C)CNC(=O)c1nc[nH]c1C(=O)N[C@H]1CC[C@H](C(=O)Nc2cc(C(F)(F)F)ccc2Cl)CC1 [Example 144, N^5-(trans-4-{[2-chloro-5-(trifluoromethyl)phenyl]carbamoyl}cyclohexyl)-N^4-(2-methoxy-2-methylpropyl)-1H-imidazole-4,5-dicarboxamide]"
3,48,"Cc1cc(C)n2ncc(C(=O)N[C@H]3CC[C@H](C(=O)Nc4c(F)cc(F)cc4Cl)CC3)c2n1 [Example 135, N-{trans-4-[(2-chloro-4,6-difluorophenyl)carbamoyl]cyclohexyl}-5,7-dimethylpyrazolo[1,5-a]pyrimidine-3-carboxamide]"
4,13,"O=C(N[C@H]1CC[C@@]2(CCN(c3ccc(F)cc3Cl)C2=O)CC1)c1cnn2cccnc12 [Example 136, N-[(trans)-2-(2-chloro-4-fluorophenyl)-1-oxo-2-azaspiro[4.5]dec-8-yl]pyrazolo[1,5-a]pyrimidine-3-carboxamide]"
5,240,"Cc1cc(NC(=O)C23CCC(NC(=O)c4cnc5cccnn45)(CC2)CC3)c(Cl)cc1F [Example 122, N-{4-[(2-chloro-4-fluoro-5-methylphenyl)carbamoyl]bicyclo[2.2.2]oct-1-yl}imidazo[1,2-b]pyridazine-3-carboxamide]"
6,470,"Cc1cc(F)cc(Cl)c1NC(=O)[C@H]1CC[C@H](NC(=O)c2cnn3cccnc23)CC1 [Example 151, N-{trans-4-[(2-chloro-4-fluoro-6-methylphenyl)carbamoyl]cyclohexyl}pyrazolo[1,5-a]pyrimidine-3-carboxamide]"
7,210,"O=C(NC12CCC(C(=O)Nc3cnccc3Cl)(CC1)CC2)c1cnn2cccnc12 [Example 120, N-{4-[(4-chloropyridin-3-yl)carbamoyl]bicyclo[2.2.2]oct-1-yl}pyrazolo[1,5-a]pyrimidine-3-carboxamide]"
8,330,"CC(C)(O)CNC(=O)c1nc[nH]c1C(=O)N[C@H]1CC[C@H](C(=O)Nc2cc(C(F)(F)F)ccc2Cl)CC1 [Example 145, N^5-(trans-4-{[2-chloro-5-(trifluoromethyl)phenyl]carbamoyl}cyclohexyl)-N^4-(2-hydroxy-2-methylpropyl)-1H-imidazole-4,5-dicarboxamide]"
9,63,"Cc1cnc2c(C(=O)N[C@H]3CC[C@H](C(=O)Nc4ccncc4Cl)CC3)cnn2c1 [Example 104, N-{trans-4-[(3-chloropyridin-4-yl)carbamoyl]cyclohexyl}-6-methyl pyrazolo[1,5-a]pyrimidine-3-carboxamide]"
10,54,"COC(C)(C)CNC(=O)c1nc[nH]c1C(=O)N[C@H]1CC[C@H](C(=O)Nc2cnccc2Cl)CC1 [Example 98, N^5-{trans-4-[(4-chloropyridin-3-yl)carbamoyl]cyclohexyl}-N^4-(2-methoxy-2-methylpropyl)-1H-imidazole-4,5-dicarboxamide]"
11,11,"Cc1cnc2c(C(=O)N[C@H]3CC[C@@]4(CCN(c5ccc(F)cc5Cl)C4=O)CC3)cnn2c1 [Example 137, N-[(trans)-2-(2-chloro-4-fluorophenyl)-1-oxo-2-azaspiro[4.5]dec-8-yl]-6-methylpyrazolo[1,5-a]pyrimidine-3-carboxamide]"
12,330,"Cc1cc(C)n2ncc(C(=O)N[C@H]3CC[C@H](C(=O)Nc4ccncc4Cl)CC3)c2n1 [Example 102, N-{trans-4-[(3-chloropyridin-4-yl)carbamoyl]cyclohexyl}-5,7-dimethylpyrazolo[1,5-a]pyrimidine-3-carboxamide]"
13,45,"O=C(NCC1CCCO1)c1nc[nH]c1C(=O)N[C@H]1CC[C@H](C(=O)Nc2cnccc2Cl)CC1 (stereo partly drawn) [Example 97, N^5-{trans-4-[(4-chloropyridin-3-yl)carbamoyl]cyclohexyl}-N^4-(tetrahydrofuran-2-ylmethyl)-1H-imidazole-4,5-dicarboxamide]"
